In patent publication US20070111956A1, “Remedy for sarcoidosis and method of treating the same” (Japan Science and Technology Agency, priority 2003, published 2007):
Structures can show the parent of a compound that is named as a salt.

How the values were obtained:
[1] = system: mice immunized three times with P. acnes; assay: Antibiotic treatment in the mouse pulmonary granuloma (sarcoidosis) model: BAL cell counts and histology; format: in vivo; settings: for decrease of the total number of BAL leukocytes (improved by): percentage in comparison to the control (PBS) group set at 100; for number of CD4+ BAL cells decreased by: two weeks after the third immunization, antibiotics begun before immunization, FIG. 6b
Description: Female C57BL/6J mice of 5 to 7 weeks of age were obtained from CLEA Japan (Shizuoka, Japan) or Japan SLC, Inc. (Tokyo, Japan), and kept under specific pathogen-free (SPF) conditions in the animal facility of the Department of Molecular Preventive Medicine, Graduated School of Medicine, the University of Tokyo. All animal experiments were conducted in accordance with the guidelines of the University of Tokyo.
P. acnes-sensitized CD4^+ T cells were isolated from groins of normal mice and mice immunized three times. Immunization was conducted by subcutaneous injection of 400 μg of heat-killed P. acnes (ATCC11828, American Type Culture Collection, Manassas, Va.) and Freund's complete adjuvant (Difco, Detroit, Mich.) into the footpad at 2-week intervals. CD4^+ cells were isolated with the use of MACS system (Miltenyi Biotech, Bergisch Gladbach, Germany) according to manufacturer's instructions. The purity of CD4^+ cell populations was 94% or higher, as confirmed by immunostaining flow cytometry. The isolated CD4^+ cells (2×10^6 cells/PBS 200 μl) were injected into the tail vein of normal mice, and histological analysis of the lungs was conducted two weeks after the injection.
BAL cells were collected by five injections of 0.8 ml of sterile PBS containing 2% FCS (Sigma, St. Louis, Mo.) and 2 mM EDTA. The total number of BAL leukocytes was counted with a hemocytometer. Before the analysis with EPICS Elite instrument (Beckman Coulter, Miami, Fla.), BAL cells were preincubated with rat anti-mouse CD16/CD32 (clone; 2.4G2) mAb to block FcR-mediated binding, and then incubated for […] at 4° C. with FITC-conjugated anti-CD4 (H129.19) mAb and PE-conjugated anti-CD8a (53-6.7) mAb, both from BD Pharmingen.
Minocycline hydrochloride (MINO) (Wyeth Ledele, Tokyo, Japan) and clindamycin (CLDM) (Pharmacia, Tokyo, Japan) were used. On day one, 133 μg of MINO and 1.6 mg of CLDM were administered intratrancheally (i.t.). Subsequently, the same dose of each antibiotic was injected intraperitoneally (i.p.) everyday for one week before immunization, then intraperitoneal injection was conducted three times per week. During the experiment, mice were given water containing each antibiotic at the same dose as mentioned above. Similarly, ampicillin (ABPC), cefazolin sodium (CEZ), gentamicin sulfate (GM), fosfomycin (FOM), clarithromycin (CAM) were used and single dose of these antibiotics was set by calculating the maximum amount for regular use by adults based on their body weight.

[2] = Examination for nonspecific immunosuppression (ear swelling, spleen index); format: in vivo, mouse; settings: in comparison to PBS control; FIG. 9
[3] = system: indigenous P. acnes in the mouse lung; assay: PCR detection of indigenous P. acnes in the mouse lung after antibiotics; format: in vivo, Propionibacterium acnes; settings: PBS as a control; FIG. 8
Description: Samples of 1 μg of total RNA were isolated from the lungs, and regional lymph nodes samples of the lung, the liver, the skin and the pancreas of SPF mice using Trizol (Invitrogen, Groningen, the Netherlands) according to the manufacturer's instructions. Then, RNA samples were reverse transcribed into cDNA, and amplified (J. Exp. Med. 193, 35-49, 2001; J. Clin. Invest. 102, 1933-1941, 1998). PCR products of 16s ribosomal RNA of P. acnes were electrophoresed on 2.5% agarose gel. The bands visualized by ethidium bromide staining were expected size for each mRNA product. Oligonucleotide primers for P. acnes were designed as described previously (J. Clin. Microbiol. 40, 198-204, 2002): forward, 5′-[…]-3′ (SEQ ID NO: 1); reverse, 5′-TTCCGACGCGATCAACCA-3′ (SEQ ID NO: 2). Contamination of P. acnes during the experiment was checked by buffer control. As primers for GAPDH as an internal standard, previously described ones were used (J. Exp. Med. 193, 35-49, 2001). PCR conditions: heated at 95° C. for 5 min, followed by 40 cycles of 95° C. for 30 sec, 58° C. for 60 sec, 72° C. for 60 sec, and finally heated at 72° C. for 10 min.
Minocycline hydrochloride (MINO) (Wyeth Ledele, Tokyo, Japan) and clindamycin (CLDM) (Pharmacia, Tokyo, Japan) were used. On day one, 133 μg of MINO and 1.6 mg of CLDM were administered intratrancheally (i.t.). […]

Compound	decrease of the total number of BAL leukocytes (improved by) ([1]; FIG. 7)	size of ear swelling [2]	spleen index [2]	decrease of the total number of BAL leukocytes (improved by), group administered for a short period ([1]; FIG. 7, short: antibiotics initiated one month after treatment of the model (at the last immunization), versus PBS set at 100)	number of CD4+ BAL cells decreased by [1]	indigenous P. acnes in the mouse lung by PCR [3]	effect on BAL cells (FIG. 7), in words ([1]; FIG. 7, in comparison to the control (PBS) group)
CC1(C)S[C@@H]2[C@H](NC(=O)[C@H](N)c3ccccc3)C(=O)N2[C@H]1C(=O)O [ABPC, ampicillin]	46.1%						
CC[C@H]1OC(=O)[C@H](C)[C@@H](O[C@H]2C[C@@](C)(OC)[C@@H](O)[C@H](C)O2)[C@H](C)[C@@H](O[C@@H]2O[C@H](C)C[C@H](N(C)C)[C@H]2O)[C@](C)(OC)C[C@@H](C)C(=O)[C@H](C)[C@@H](O)[C@]1(C)O [CAM, clarithromycin]	48.3%						
CCC[C@@H]1C[C@@H](C(=O)N[C@@H]([C@H]2O[C@H](SC)[C@H](O)[C@@H](O)[C@H]2O)[C@H](C)Cl)N(C)C1 [CLDM, clindamycin]	42.1%	no marked differences	no marked differences	74.3%	42.1%		
CN(C)c1ccc(O)c2c1C[C@H]1C[C@H]3[C@H](N(C)C)C(O)=C(C(N)=O)C(=O)[C@@]3(O)C(O)=C1C2=O [MINO, minocycline hydrochloride]	53.5%	no marked differences	no marked differences		53.5%		
gentamicin sulfate [GM]						did not decrease so much	no effect
